According to US8110588B2, “1,2,3-triazole derivatives useful as modulators of nicotinic acetylcholine receptors” (Neurosearch A/S, priority 2007, dated 2012):

Tests used:
[1] = target: T1, wild-type nAChR α7 receptors (Homo sapiens, UniProt P36544); assay: Positive modulation of acetylcholine-induced currents, two-electrode voltage clamp in Xenopus oocytes; format: cell-based; settings: for maximal modulation of the acetylcholine (control) response (Imax) / EC50: 100 μM acetylcholine, nAChR α7 expressed in Xenopus laevis oocytes; for maximal modulation of the acetylcholine (control) response (Imax): (test-control)/control×100%; for EC50: clamped at −60 mV, compound 0.01-31.6 μM, read-out: EC50 for positive modulation of acetylcholine responses; for effect on acetylcholine-induced current amplitude: 0.01-31.6 μM compound applied 30 s before and during 100 μM acetylcholine application
T1 construct: expressed in transfected cells; host or cells: Xenopus laevis oocytes
Experimental: In this example the positive modulation of wild-type nAChR α7 receptors by Compound 1 (FIGS. 1A and 1B) and Compound 3 (FIGS. 2A and 2B) was determined using nAChR α7 receptors heterologously expressed in Xenopus laevis oocytes.
The electrical current through the nAChR α7 channel was measured using conventional two-electrode voltage clamp and nAChR α7 currents were activated by applying pulses of agonist-containing solution onto the nAChR α7 expressing oocyte. In brief, the oocytes were placed in a recording chambers and continuously superfused with an Oocyte Ringer (OR) solution containing 90 mM NaCl, 2.5 mM KCl, 2.5 mM CaCl2, 1 mM MgCl2 and 5 mM HEPES (pH adjusted to 7.4). The oocytes were clamped at −60 mV and currents were induced by applying 20 s pulses of 100 μM acetylcholine dissolved in OR. The intervals between the acetylcholine applications were 5 minutes, during which the oocytes were washed with OR. The first three applications were control applications to insure a constant response level of 100 μM acetylcholine.
The positive modulation in the presence of Compound 1 and Compound 3 was calculated as (test-control)/control×100% and the concentration response curve for this positive modulation was fitted to the sigmoidal logistic equation: I=Imax/(1+(EC50/[compound])^n), where Imax represents the maximal modulation of the control response, EC50 is the concentration causing a half maximal response, and n is the slope coefficient.

T1 sequence (P36544 23-502): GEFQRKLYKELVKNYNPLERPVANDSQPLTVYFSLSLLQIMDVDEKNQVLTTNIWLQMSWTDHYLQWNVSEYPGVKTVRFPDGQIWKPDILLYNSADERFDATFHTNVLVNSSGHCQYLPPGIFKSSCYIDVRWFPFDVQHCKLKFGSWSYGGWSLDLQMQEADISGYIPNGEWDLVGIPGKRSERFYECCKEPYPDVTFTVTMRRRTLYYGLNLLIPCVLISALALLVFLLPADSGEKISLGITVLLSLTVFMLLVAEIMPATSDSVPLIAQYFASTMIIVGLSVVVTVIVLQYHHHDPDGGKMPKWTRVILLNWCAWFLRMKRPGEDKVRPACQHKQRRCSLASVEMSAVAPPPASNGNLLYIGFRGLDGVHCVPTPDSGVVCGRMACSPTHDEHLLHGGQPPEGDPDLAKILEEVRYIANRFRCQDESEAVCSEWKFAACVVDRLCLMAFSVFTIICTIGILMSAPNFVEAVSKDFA

melting point	Structure (SMILES)	also measured
159.2 to 160.2 °C	COc1ccc(-n2nnc(-c3ccc(Cl)cc3C(F)(F)F)c2N)cc1 [Compound 23, 5-(4-Chloro-2-trifluoromethyl-phenyl)-3-(4-methoxy-phenyl)-3H-[1,2,3]triazol-4-ylamine]	
176.2 to 177.5 °C	Nc1c(-c2ccc(C(F)(F)F)cc2F)nnn1-c1ccc(O)cc1 [Compound 17, 4-[5-Amino-4-(2-fluoro-4-trifluoromethyl-phenyl)-[1,2,3]triazol-1-yl]-phenol]	
131.3 to 135.6 °C	Nc1c(-c2cc(Cl)ccc2O)nnn1-c1ccc(Cl)cc1Cl [Compound 8, 2-[5-Amino-1-(2,4-dichloro-phenyl)-1H-[1,2,3]triazol-4-yl]-4-chloro-phenol]	
163.5 to 165.2 °C	Nc1c(-c2ccc(O)cc2)nnn1-c1ccc(C(F)(F)F)cc1F [Compound 15, 4-[5-Amino-1-(2-fluoro-4-trifluoromethyl-phenyl)-1H-[1,2,3]triazol-4-yl]-phenol]	
152 to 156.5 °C	COc1ccc(-n2nnc(-c3ccc(F)cc3F)c2N)cc1 [Compound 24, 5-(2,4-Difluoro-phenyl)-3-(4-methoxy-phenyl)-3H-[1,2,3]triazol-4-ylamine]	
169.9 to 170.2 °C	Nc1c(-c2ccc(Cl)cc2)nnn1-c1ccc(C(F)(F)F)cc1F [Compound 18, 5-(4-Chloro-phenyl)-3-(2-fluoro-4-trifluoromethyl-phenyl)-3H-[1,2,3]triazol-4-ylamine]	
183.8 to 185.2 °C	Nc1c(-c2ccc(C(F)(F)F)cc2F)nnn1-c1ccc(S(N)(=O)=O)cc1 [Compound 13, 4-[5-Amino-4-(2-fluoro-4-trifluoromethyl-phenyl)-[1,2,3]triazol-1-yl]-benzenesulfonamide]	
134.2 to 134.9 °C	Nc1c(-c2ccc(OC(F)(F)F)cc2)nnn1-c1ccc(C(F)(F)F)cc1F [Compound 19, 3-(2-Fluoro-4-trifluoromethyl-phenyl)-5-(4-trifluoromethoxy-phenyl)-3H-[1,2,3]triazol-4-ylamine]	
175 to 176.8 °C	COc1ccc(-n2nnc(-c3ccc(F)cc3Cl)c2N)cc1 [Compound 25, 5-(2-Chloro-4-fluoro-phenyl)-3-(4-methoxy-phenyl)-3H-[1,2,3]triazol-4-ylamine]	
136.3 to 141.2 °C	COc1ccc(-c2nnn(-c3ccc(F)cc3Cl)c2N)cc1 [Compound 5, 3-(2-Chloro-4-fluoro-phenyl)-5-(4-methoxy-phenyl)-3H-[1,2,3]triazol-4-ylamine]	
189.9 to 191.3 °C	COc1ccc(-n2nnc(-c3ccc(Cl)c(Cl)c3)c2N)cc1 [Compound 26, 5-(3,4-Dichloro-phenyl)-3-(4-methoxy-phenyl)-3H-[1,2,3]triazol-4-ylamine]	
72.5 to 73.6 °C	COc1ccc(-c2nnn(-c3c(Cl)cc(Cl)cc3I)c2N)cc1 [Compound 22, 3-(2,4-Dichloro-6-iodo-phenyl)-5-(4-methoxy-phenyl)-3H-[1,2,3]triazol-4-ylamine]	
164.6 to 165.5 °C	COc1ccc(-n2nnc(-c3ccc(C(F)(F)F)cc3F)c2N)cc1 [Compound 16, 5-(2-Fluoro-4-trifluoromethyl-phenyl)-3-(4-methoxy-phenyl)-3H-[1,2,3]triazol-4-ylamine]	
130 to 130.7 °C	COc1ccc(-c2nnn(-c3ccc(C(F)(F)F)cc3Cl)c2N)cc1 [Compound 3, 3-(2-Chloro-4-trifluoromethyl-phenyl)-5-(4-methoxy-phenyl)-3H-[1,2,3]triazol-4-ylamine]	maximal modulation of the acetylcholine (control) response (Imax) [1]: 563%; EC50 [1]: 1.7 µM; effect on acetylcholine-induced current amplitude [1]: robust increase
114.8 to 116.2 °C	CC(=O)Nc1ccc(-c2nnn(-c3ccc(C(F)(F)F)cc3F)c2N)cc1 [Compound 11, N-{4-[5-Amino-1-(2-fluoro-4-trifluoromethyl-phenyl)-1H-[1,2,3]triazol-4-yl]-phenyl}-acetamide]	
184.6 to 186.1 °C	Nc1c(-c2ccc(-c3nnco3)cc2)nnn1-c1ccc(C(F)(F)F)cc1F [Compound 10, 3-(2-Fluoro-4-trifluoromethyl-phenyl)-5-(4-[1,3,4]oxadiazol-2-yl-phenyl)-3H-[1,2,3]triazol-4-ylamine]	
147.9 to 149.5 °C	COc1ccc(-n2nnc(-c3ccc(Cl)cc3F)c2N)cc1 [Compound 27, 5-(4-Chloro-2-fluoro-phenyl)-3-(4-methoxy-phenyl)-3H-[1,2,3]triazol-4-ylamine]	
161 to 162.3 °C	Nc1c(-c2ccc(O)cc2)nnn1-c1ccc(C(F)(F)F)cc1Cl [Compound 21, 4-[5-Amino-1-(2-chloro-4-trifluoromethyl-phenyl)-1H-[1,2,3]triazol-4-yl]-phenol]	
153.5 to 154.7 °C	COc1ccc(Cl)cc1-c1nnn(-c2ccc(Cl)cc2Cl)c1N [Compound 4, 5-(5-Chloro-2-methoxy-phenyl)-3-(2,4-dichloro-phenyl)-3H-[1,2,3]triazol-4-ylamine]	
154.6 to 163.9 °C	COc1ccc(-n2nnc(-c3ccc(Cl)cc3Cl)c2N)cc1 [Compound 6, 5-(2,4-Dichloro-phenyl)-3-(4-methoxy-phenyl)-3H-[1,2,3]triazol-4-ylamine]	
149.2 to 150.7 °C	COc1ccc(-c2nnn(-c3ccc(Cl)cc3Cl)c2N)cc1 [Compound 1, 3-(2,4-Dichloro-phenyl)-5-(4-methoxy-phenyl)-3H-[1,2,3]triazol-4-ylamine]	maximal modulation of the acetylcholine (control) response (Imax) [1]: 561%; EC50 [1]: 4.9 µM; effect on acetylcholine-induced current amplitude [1]: robust increase
74.5 to 77.5 °C	Nc1c(-c2cc(Cl)ccc2O)nnn1-c1ccc(C(F)(F)F)cc1Cl [Compound 9, 2-[5-Amino-1-(2-chloro-4-trifluoromethyl-phenyl)-1H-[1,2,3]triazol-4-yl]-4-chloro-phenol]	
136.3 to 141.2 °C	COc1ccc(-c2nnn(-c3cc(C)on3)c2N)cc1 [Compound 7, 5-(4-Methoxy-phenyl)-3-(5-methyl-isoxazol-3-yl)-3H-[1,2,3]triazol-4-yl amine]	
163.6 to 165 °C	Nc1ccc(-c2nnn(-c3ccc(C(F)(F)F)cc3F)c2N)cc1 [Compound 12, 5-(4-Amino-phenyl)-3-(2-fluoro-4-trifluoromethyl-phenyl)-3H-[1,2,3]triazol-4-ylamine]	
152.8 to 153.3 °C	COc1ccc(Cl)cc1-c1nnn(-c2ccc(C(F)(F)F)cc2Cl)c1N [Compound 2, 5-(5-Chloro-2-methoxy-phenyl)-3-(2-chloro-4-trifluoromethyl-phenyl)-3H-[1,2,3]triazol-4-ylamine]	
